Earlier results on 2 molecules are cited in US10539496B2, “Instrument and method for optical particle sensing” (Invitrox, Inc., priority 2011, dated 2020).

SMILES strings stand for the structures.

The series has as its system platelets. Conditions: platelet inhibition in arterial thrombophilic diseases; share of drug-treated patients.

`CC(=O)Oc1ccccc1C(=O)O` [ASA, Aspirin]: the “treated patients who do not respond to treatment” value is listed as “Approximately 25%”. Turning to `COC(=O)[C@H](c1ccccc1Cl)N1CCc2sccc2C1` [Plavix, clopidogrel bisulfate], the “treated patients who do not respond to treatment” value is roughly 29%.
